pIC50: −log10 of the molar value.
Test: Inhibition of hemagglutininin-tagged HIV1 Rev protein nuclear export in human HeLa cells assessed as localization by indirect fluorescent antibody technique
Format: cell-based, Human immunodeficiency virus 1

Row | SMILES | pIC50
1 | CC(=O)OCC1=CO[C@@H](OC(=O)CC(C)C)[C@H]2[C@@H]1C[C@H](OC(=O)CC(C)C)[C@]21CO1 | 5.36
2 | CCCCOCC1=CO[C@@H](OC(=O)CC(C)C)[C@H]2[C@@H]1C[C@H](OC(=O)CC(C)C)[C@]21CO1 | 5.48
3 | CC(=O)OCC1=CO[C@@H](OC(C)=O)[C@H]2[C@@H]1C[C@H](OC(=O)CC(C)C)[C@]21CO1 | 6.00
4 | CC(=O)OCC1=CO[C@@H](OC(=O)CC(C)C)[C@H]2[C@@H]1C[C@H](OC(C)=O)[C@]21CO1 | 5.59
5 | CC(=O)OCC1=CO[C@@H](OC(=O)CC(C)C)[C@H]2C1=C[C@H](OC(=O)CC(C)C)[C@]21CO1 [VALTRATE] | 5.60

From ChEMBL document CHEMBL1212870, “Concise synthesis of 5,6-dihydrovaltrate leading to enhanced Rev-export inhibitory congener” (Bioorg Med Chem, 2010)
